Assay results taken from publication PMC6269819, “Evaluation of the Biological Activity of Naturally Occurring 5,8-Dihydroxycoumarin” (Molecules, 2013).
“And” between values parts separate entries of the source, which are not always exact repeats. Equal entries are not always repeated. Marks after values point to notes of the source that are not given here.

Assays:
[1] = DPPH• radical scavenging assay; settings: 16 min reaction
Description: Radical scavenging activity of extracts against stable DPPH^• (2,2-diphenyl-[…] hydrate, Sigma-Aldrich Chemie, Steinheim, Germany) was determined spectrophotometrically by using slightly modified method of Brand-Williams et al. (1995). 5,8-DHC was dissolved in methanol at 0.0025, 0.005, 0.010 and 0.025% concentrations before reaction. A 2 mL aliquot of DPPH^• solution in methanol (6 × 10^−5 M) was mixed with a 50 μL of 5,8-DHC solution in 1 cm path length quartz cuvette. The decreasing absorbance at 515 nm was recorded on a UV spectrophotometer Spectronic Genesys 8 (Spectronic Instruments, Rochester, NY, USA) during 16 min reaction time at 1 min intervals until the absorbance curve reached the plateau. The same amount of methanol and DPPH^• solution was used as a blank. The experiments were carried out in triplicate.

[2] = Ferric reducing/antioxidant power (FRAP) assay
Description: The ability of antioxidants to reduce ferric ion to the ferrous ion, (FRAP assay) is another indicator frequently used for assessing antioxidant power. Ferrous ion (Fe^2+) produced in this assay forms a blue complex (Fe^2+/TPTZ) absorbing at 593 nm. Briefly, the reagent was prepared by mixing acetate buffer (300 mM, pH 3.6), a solution of 10 mM TPTZ in 40 mM HCl, and 20 mM FeCl3 × 6H2O at 10:1:1 (v/v/v). Firstly 300 μL of freshly prepared FRAP reagent was heated to 37 °C and an absorbance (A0) of a blank reagent was read at 593 nm in a Biotek EL808 microplate reader (Winooski, VT, USA). Then 10 μL of 0.01% 5,8-DHC solution in water and 30 μL H2O were added and the absorbance (A) was recorded every 1 min during the whole monitoring period which lasted up to 30 min. The change in the absorbance (ΔA593 nm) between the final reading and A0 was calculated for each sample and related to the ΔA593 nm of a Fe^2+ reference solution which was measured simultaneously. The value is expressed in Trolox equivalents required to obtain similar reducing power.

[3] = Rapeseed oil oxidation in Oxipress apparatus; settings: for protection factor of rapeseed oil: 120 °C, oxygen 5 bars
Description: The samples were prepared by mixing rapeseed oil with 0.025, 0.05 and 0.1% of DHC. Five g of oil were placed in a reactor tube and thermostated at 120 °C under oxygen atmosphere (5 bars) in Oxipress apparatus (Mikrolab, Aarhus). Pressure changes which occur due to the absorption of oxygen consumed for oil oxidation were recorded. The protection factor (PF) values of rapeseed oil in case of using 5,8-DHC were calculated by the following formula: PF = IPX/IPK(3) where IPX is induction period of sample with additive (h); IPK is induction period of sample without additive (h).

[4] = system: Wistar rat bone marrow cells; assay: Micronucleus in vivo assay in rat bone marrow
Excerpt: Male albino Wistar rats aged 8–10 weeks and having body weight of 200–220 g, were used in the present study. The animals were supplied by the Animal Facility of the Department of Immunology, State Research Institute Center for Innovative Medicine. Ethical approval was given by the Committee of the Lithuanian Animal Care and Use. Prior to the start of the study, the animals were acclimatized for 7 days. They were housed under conditions of constant temperature, humidity and a light/dark cycle of 12 h/12 h with free access to standard commercial pellet diet and drinking water. The animals were randomly distributed into 11 experimental groups of six rats each.
We used a mixture of dimethylsulfoxide (DMSO) and sunflower oil (1:2) as the vehicle for 5,8-DHC (5,8-DHC was dissolved in DMSO and adjusted to the desired dose with sunflower oil immediately before administration). For the acute treatment, the animals received single intraperitoneal (i.p.) injections of 10 or 20 mg/kg of 5,8-DHC in 1 mL volume per 100 g body weight (b.w.). The negative control group comprised animals, given a single i.p. injection of vehicle (1 mL/100 g b.w.) and the positive control group, given cyclophosphamide (CP, 30 mg/kg adjusted in 0.5 mL/100 g b.w. in sterile physiological saline). A commercial form of cyclophosphamide was used (‘Endoxan’, ASTA Medica AG, Frankfurt, Germany). Blank controls comprised untreated animals. For the repeated treatment, 5,8-DHC (10 or 20 mg/kg) or vehicle was administered via gavage (1 mL/100 g b.w.) once a day for 3 consecutive days. Animals were sacrificed 24 h or 48 h after the last dose administration. Colchicine was applied i.p. at a dose of 2 mg/kg b.w. in 1 mL volume 90 min before sacrifice. Both femurs were dissected from each animal and used to obtain bone marrow preparations for the analysis of chromosome aberrations and micronucleus.
The bone marrow MN assay was conducted according to the standard procedure. Ends of the femura were cut off and the bone marrow was washed out with 2 mL of heat-inactivated foetal calf serum (Biochrom AG, Berlin, Germany), mixed thoroughly to obtain a fine suspension and centrifuged for 5 min at 150 × g. The supernatant was discarded and the cell pellet was carefully re-suspended. At least two smears per animal were prepared and allowed to air dry prior to fixation with methanol. The slides were stained in May-Grünwald solution followed by Giemsa (both Merck), coded and scored blind by the same scorer under magnification of 1000× (Jenaval, Zeiss, Jena, Germany). Micronucleated polychromatic erythrocyte (MNPCE) frequencies were based on the observation of 2,000 immature polychromatic erythrocytes (PCEs). Bone marrow toxicity was monitored by a decrease of PCE to total erythrocytes (e.g., PCEs+NCEs, normochromatic erythrocytes). At least 1,000 bone marrow erythrocytes per animal were analysed.

[5] = Signs of systemic toxicity and mortality in treated rats
[6] = repeated gavage 3 × 10 mg/kg b.w., sacrifice 48 h
[7] = repeated gavage 3 × 20 mg/kg b.w., sacrifice 48 h
[8] = single i.p. 10 mg/kg b.w., sacrifice 24 h
[9] = single i.p. 10 mg/kg b.w., sacrifice 48 h

O=c1ccc2c(O)ccc(O)c2o1 [5,8-DHC, 5,8-Dihydroxycoumarin]
IC50 in DPPH• assay [1]: 0.0185%
FRAP value [2]: 577 ± 0.0 mg/g in Trolox equivalents
rapeseed oil autooxidation induction period (IP) ([3]; 0.025 % 5,8-DHC): 3.81 h
protection factor of rapeseed oil ([3]; 0.025% 5,8-DHC): 1.69
rapeseed oil autooxidation induction period (IP) ([3]; 0.050 % 5,8-DHC): 5.46 h
protection factor of rapeseed oil ([3]; 0.05% 5,8-DHC): 2.43
rapeseed oil autooxidation induction period (IP) ([3]; 0.100 % 5,8-DHC): 8.46 h
cytotoxicity (decline of the proportion of PCEs to total erythrocytes) ([4]; rat, in vivo): no signs of 5,8-DHC cytotoxicity
effect on the frequency of MNPCEs ([4]; repeated gavage): no obvious effect
MNPCE (%± S.E.M.) [4, 6]: 0.24 ± 0.05%
PCE (%± S.E.M.) [4, 6]: 31.7 ± 4.0%
MNPCE (%± S.E.M.) [4, 7]: 0.23 ± 0.05%
PCE (%± S.E.M.) [4, 7]: 45.5 ± 3.5%
MNPCE (%± S.E.M.) [4, 8]: 0.56 ± 0.08 ^a %
PCE (%± S.E.M.) [4, 8]: 32.1 ± 1.9%
MNPCE (%± S.E.M.) [4, 9]: 0.30 ± 0.06%
PCE (%± S.E.M.) [4, 9]: 31.8 ± 5.6%
PCE (%± S.E.M.) ([4]; single i.p. 20 mg/kg b.w., sacrifice 24 h): 36.6 ± 2.8%
MNPCE (%± S.E.M.) ([4]; single i.p. 20 mg/kg b.w., sacrifice 24 h, 20 mg/kg): 0.63% and 0.63 ± 0.04 ^a %
PCE (%± S.E.M.) ([4]; single i.p. 20 mg/kg b.w., sacrifice 48 h): 26.6 ± 5.0%
MNPCE (%± S.E.M.) ([4]; single i.p. 20 mg/kg b.w., sacrifice 48 h, 20 mg/kg): 0.59% and 0.59 ± 0.14^a %
signs of systemic toxicity ([5]; 20 mg/kg b.w., at 2–3 h after dose administration): sluggishness was observed in all rats
time to death after administration ([5]; i.p. injection 100 mg/kg): 3 to 4 h
toxicity and mortality ([5]; i.p. injection 100 mg/kg): sluggishness and death of all treated animals
signs of systemic toxicity ([5]; repeated treatment with 10 mg/kg b.w., since second dose administration): sluggishness
